{"source": "paper PMC6837725", "experiment": "Intramolecular Suzuki-Miyaura C(sp3)-C(sp2) coupling (cis-4-chlorocyclobut-2-ene carboxylate + E-vinyl-BPin) followed by spontaneous 4pi-electrocyclic ring opening to the (E,E,E)-trienoate macrolactone; Pd(PPh3)4 10 mol%, Cs2CO3 5 equiv", "details": "19-membered ring, THF/H2O 3:1, 2.0 mM, 25.0 °C"}
{"smiles": "C/C(=C\\C=C\\C(F)(F)F)[C@H]1CC(=O)NC[C@H](O[Si](C)(C)C(C)(C)C)[C@H](C)C(=O)NCC/C=C/C=C/C=C/C(=O)O1", "values": [{"measurement": "ring closure, isolated yield", "setting": "from C/C(=C\\C=C\\C(F)(F)F)[C@@H](CC(=O)NC[C@H](O[Si](C)(C)C(C)(C)C)[C@H](C)C(=O)NCC/C=C/B1OC(C)(C)C(C)(C)O1)OC(=O)C1C=CC1Cl", "result": 73, "unit": "%"}]}
{"smiles": "C[C@@H]1C(=O)NCC/C=C/C=C/C=C/C(=O)O[C@@H](C)CC(=O)NC[C@@H]1O[Si](C)(C)C(C)(C)C", "values": [{"measurement": "ring closure, isolated yield", "setting": "from C[C@H](C(=O)NCC/C=C/B1OC(C)(C)C(C)(C)O1)[C@H](CNC(=O)C[C@H](C)OC(=O)C1C=CC1Cl)O[Si](C)(C)C(C)(C)C", "result": 84, "unit": "%"}]}
{"smiles": "CCCCCCC/C=C/C=C(\\C)[C@H]1CC(=O)NC[C@H](O[Si](C)(C)C(C)(C)C)[C@H](C)C(=O)NCC/C=C/C=C/C=C/C(=O)O1", "note": "[cis-31a -> 32a (FR252921)]", "values": [{"measurement": "ring closure, isolated yield", "setting": "from CCCCCCC/C=C/C=C(\\C)[C@@H](CC(=O)NC[C@H](O[Si](C)(C)C(C)(C)C)[C@H](C)C(=O)NCC/C=C/B1OC(C)(C)C(C)(C)O1)OC(=O)C1C=CC1Cl", "result": 74, "unit": "%"}]}
{"smiles": "CCCCCCCCC/C=C/C=C(\\C)[C@H]1CC(=O)NC[C@H](O[Si](C)(C)C(C)(C)C)[C@H](C)C(=O)NCC/C=C/C=C/C=C/C(=O)O1", "note": "[cis-31b -> 32b (FR252922)]", "values": [{"measurement": "ring closure, isolated yield", "setting": "from CCCCCCCCC/C=C/C=C(\\C)[C@@H](CC(=O)NC[C@H](O[Si](C)(C)C(C)(C)C)[C@H](C)C(=O)NCC/C=C/B1OC(C)(C)C(C)(C)O1)OC(=O)C1C=CC1Cl", "result": 82, "unit": "%"}]}
{"smiles": "CCCCCCC/C=C/C=C/C=C(\\C)[C@H]1CC(=O)NC[C@H](O[Si](C)(C)C(C)(C)C)[C@H](C)C(=O)NCC/C=C/C=C/C=C/C(=O)O1", "note": "[cis-31c -> 32c (FR256523)]", "values": [{"measurement": "ring closure, isolated yield", "setting": "from CCCCCCC/C=C/C=C/C=C(\\C)[C@@H](CC(=O)NC[C@H](O[Si](C)(C)C(C)(C)C)[C@H](C)C(=O)NCC/C=C/B1OC(C)(C)C(C)(C)O1)OC(=O)C1C=CC1Cl", "result": 71, "unit": "%"}]}
{"smiles": "CCCCCCCCCCC[C@H]1CC(=O)NC[C@H](O[Si](C)(C)C(C)(C)C)[C@H](C)C(=O)NCC/C=C/C=C/C=C/C(=O)O1", "note": "[cis-31d -> 32d (FR1, C11H23 side chain)]", "values": [{"measurement": "ring closure, isolated yield", "setting": "from CCCCCCCCCCC[C@@H](CC(=O)NC[C@H](O[Si](C)(C)C(C)(C)C)[C@H](C)C(=O)NCC/C=C/B1OC(C)(C)C(C)(C)O1)OC(=O)C1C=CC1Cl", "result": 56, "unit": "%"}]}
{"smiles": "CCCCCCC/C=C/C=C(\\C)[C@H]1CC(=O)NC[C@H](O[Si](C)(C)C(C)(C)C)CC(=O)NCC/C=C/C=C/C=C/C(=O)O1", "note": "[cis-31f -> 32f (FR3, C12-desmethyl)]", "values": [{"measurement": "ring closure, isolated yield", "setting": "from CCCCCCC/C=C/C=C(\\C)[C@@H](CC(=O)NC[C@@H](CC(=O)NCC/C=C/B1OC(C)(C)C(C)(C)O1)O[Si](C)(C)C(C)(C)C)OC(=O)C1C=CC1Cl", "result": 73, "unit": "%"}]}
{"smiles": "CCCCCCC/C=C/C=C(\\C)[C@H]1CC(=O)NCCCC(=O)NCC/C=C/C=C/C=C/C(=O)O1", "note": "[cis-31g -> FR4 (no C12-Me, no C13-O)]", "values": [{"measurement": "ring closure, isolated yield", "setting": "from CCCCCCC/C=C/C=C(\\C)[C@@H](CC(=O)NCCCC(=O)NCC/C=C/B1OC(C)(C)C(C)(C)O1)OC(=O)C1C=CC1Cl", "result": 55, "unit": "%"}]}
{"smiles": "C/C(=C\\C=C\\c1ccccc1)[C@H]1CC(=O)NC[C@H](O[Si](C)(C)C(C)(C)C)[C@H](C)C(=O)NCC/C=C/C=C/C=C/C(=O)O1", "note": "[cis-31i -> 32i (FR6, Ph-dienyl)]", "values": [{"measurement": "ring closure, isolated yield", "setting": "from C/C(=C\\C=C\\c1ccccc1)[C@@H](CC(=O)NC[C@H](O[Si](C)(C)C(C)(C)C)[C@H](C)C(=O)NCC/C=C/B1OC(C)(C)C(C)(C)O1)OC(=O)C1C=CC1Cl", "result": 80, "unit": "%"}]}
{"smiles": "C/C(=C\\C=C\\c1ccc(C)cc1)[C@H]1CC(=O)NC[C@H](O[Si](C)(C)C(C)(C)C)[C@H](C)C(=O)NCC/C=C/C=C/C=C/C(=O)O1", "note": "[cis-31j -> 32j (FR7, p-tolyl-dienyl)]", "values": [{"measurement": "ring closure, isolated yield", "setting": "from C/C(=C\\C=C\\c1ccc(C)cc1)[C@@H](CC(=O)NC[C@H](O[Si](C)(C)C(C)(C)C)[C@H](C)C(=O)NCC/C=C/B1OC(C)(C)C(C)(C)O1)OC(=O)C1C=CC1Cl", "result": 20, "unit": "%"}]}
{"smiles": "C/C(=C\\C=C\\c1ccc(C(F)(F)F)cc1)[C@H]1CC(=O)NC[C@H](O[Si](C)(C)C(C)(C)C)[C@H](C)C(=O)NCC/C=C/C=C/C=C/C(=O)O1", "note": "[cis-31k -> 32k (FR8, p-CF3-phenyl-dienyl)]", "values": [{"measurement": "ring closure, isolated yield", "setting": "from C/C(=C\\C=C\\c1ccc(C(F)(F)F)cc1)[C@@H](CC(=O)NC[C@H](O[Si](C)(C)C(C)(C)C)[C@H](C)C(=O)NCC/C=C/B1OC(C)(C)C(C)(C)O1)OC(=O)C1C=CC1Cl", "result": 47, "unit": "%"}]}
{"smiles": "C[C@@H]1C(=O)NCC/C=C/C=C/C=C/C(=O)O[C@@H](c2ccc(Br)cc2)CC(=O)NC[C@@H]1O[Si](C)(C)C(C)(C)C", "note": "[cis-31l -> 32l (FR9, 4-bromophenyl)]", "values": [{"measurement": "ring closure, isolated yield", "setting": "from C[C@H](C(=O)NCC/C=C/B1OC(C)(C)C(C)(C)O1)[C@H](CNC(=O)C[C@@H](OC(=O)C1C=CC1Cl)c1ccc(Br)cc1)O[Si](C)(C)C(C)(C)C", "result": 58, "unit": "%"}]}
{"smiles": "C/C(=C\\Br)[C@H]1CC(=O)NC[C@H](O[Si](C)(C)C(C)(C)C)[C@H](C)C(=O)NCC/C=C/C=C/C=C/C(=O)O1", "note": "[cis-31m -> 32m (FR10, bromovinyl)]", "values": [{"measurement": "ring closure, isolated yield", "setting": "from C/C(=C\\Br)[C@@H](CC(=O)NC[C@H](O[Si](C)(C)C(C)(C)C)[C@H](C)C(=O)NCC/C=C/B1OC(C)(C)C(C)(C)O1)OC(=O)C1C=CC1Cl", "result": 54, "unit": "%"}]}
{"smiles": "C[C@@H]1C(=O)NCC/C=C/C=C/C=C/C(=O)O[C@@H](c2ccc3ccccc3c2)CC(=O)NC[C@@H]1O[Si](C)(C)C(C)(C)C", "note": "[cis-31n -> 32n (FR11, 2-naphthyl)]", "values": [{"measurement": "ring closure, isolated yield", "setting": "from C[C@H](C(=O)NCC/C=C/B1OC(C)(C)C(C)(C)O1)[C@H](CNC(=O)C[C@@H](OC(=O)C1C=CC1Cl)c1ccc2ccccc2c1)O[Si](C)(C)C(C)(C)C", "result": 51, "unit": "%"}]}
